Test results: patent US20060211628A1 (priority 2002, published 2006)

Columns and labels:
[1] = in vivo; cited from earlier work
[2] = tested on: endogenous reduced glutathione (GSH); assay: In vivo antioxidation: striatum/serum endogenous GSH after IP injection of compound A; parameters: species or system Balb/c mice; conditions: injected IP, 100-300 mg/kg, three hours post injection
Method: With reference now to FIG. 3. To this end, three groups of two months old Balb/c mice containing two animals in each group were injected intraperitonealy (IP) with 100-300 mg/kg body weight of compound A. Blood samples were drawn from the tail three hours post injection and then the animals were sacrificed and either the corpus striatum or the whole brain were removed and analyzed for GSH levels.
GSH levels were determined using the experimental procedures as described hereinbelow and/or the GSH-400 kit (Oxis International, Inc.).
Preparation of brain homogenates: Animals were rapidly killed and exsanguinated to remove excess blood from the brain. The brain of each animal was rinsed in a beaker containing water, lightly blotted to dry and were weighted. The striatums were transferred into a hand-homogenizer tube and each was homogenized using a constant number (e.g., 20) of up and down strokes of the hand-homogenizer pestle. Each of the homogenates was poured into a centrifuge tube and centrifuged for 10,000×g for 5 min. The supernatant was used for GSH determination as follows.
GSHAssay: For each measurement, 200 μl of sample were incubated with 20 μl DTNB [5,5′ dithio bis(2-nitrobenzoic acid)] for 1 hour in 37° C. Final absorbance was measured at 400 nm. Similar results were obtained using the GSH-400 kit. […]

[3] = Crossing the blood-brain-barrier: compound J level in brain extracts by fluorescent labeling and HPLC; format: in vivo, C57BL/6J mice; conditions: IP injection 0.25-4 mg, brain extracts 15 min later
Method: Detection of compound j (referred to in this Example also as CEA) was established using high performance liquid chromatography (HPLC). To this end, CEA was treated with a fluorescent thiolyte reagent (monobromobimane reagent) and analyzed on an HPLC column.
Crossing the blood-brain-barrier: In vivo experiments were carried out on C57BL/6J mice (15 grams) injected IP with compound J. After incubation (15 min, 60 min or 4 hours) the mice were anesthetized with ether and blood samples were drawn. Then mice underwent perfusion with 50 ml of saline, injected into the right ventricle. The levels of compound I in the brain and in the plasma were detected by selective fluorescent labeling using high performance liquid chromatography (HPLC).
Increasing amounts of compound J were injected IP and 15 min later, mice were perfused with saline and compound J levels in the brain extracts were determined by HPLC chromatography (FIG. 5b), as compared to a control, pure, uninjected compound J (FIG. 5a).

GSH = assay: Brain GSH levels after IP injection of compound J (HPLC); format: in vivo, C57BL/6J mice; conditions: brain extract after IP injection
MOG-induced EAE = assay: Prevention of MOG-induced experimental autoimmune encephalomyelitis (EAE); format: in vivo, C3H.SW female mice; conditions: 200 mg/kg IP twice a day plus 300 mg/kg in drinking water
Method: EAE was induced in C3H.SW female mice (4-6 weeks old, Harlen, Rehovot, Israel) by immunization with the peptide encompassing amino acids 35-55 of rat myelin oligodendrocyte glycoprotein (MOG). Synthesis was carried out by the Weizmann Institute Synthesis Unit, using a solid-phase technique on a peptide synthesizer (Applied Biosystems Inc., Foster City, Calif. City). Mice were injected subcutaneously at one site in the flank with a 200 μl emulsion containing 75 μg MOG peptide in complete Freund's adjuvant (CFA). An identical booster immunization was given at one site of the other flank one week later. Mice (n=16) were injected intraperitonealy with Compound J (200 mg/kg) twice a day and in addition, were given Compound J orally in the drinking water (300 mg/kg) on day 1 of the MOG injection and for additional 35 days post injection. Control mice (n=16) were injected twice a day with 200 mg of saline for the same time period. 0=no clinical symptom's; 1=loss of tail tonicity; 2=partial hind limb paralysis; 3=complete hind limb paralysis; 4=paralysis of four limbs; 5=total paralysis; 6=death.

[4] = tested on: Neuroblastoma SHSY5Y (NB) cells; assay: Protection from oxidative stress in vitro, neutral red survival assay; format: cell-based; conditions: compound at 0.1 mM
Method: Protection from oxidative stress in vitro: Neuroblastoma SHSY5Y (NB) cells were maintained in Dulbeco's Modified Eagle's Medium (DMEM), supplemented with 8% FCS and 8% horse serum, penicillin (25 μg/ml), streptomycin (25 μg/ml), 2 mM L-glutamine and 400 μg/ml G418 (Gibco/BRL). For protection experiments cells were subcultured (in 2% serum) to poly-L-lysine-coated 96-well microtiter plates (Nunc), 100 μl of 5×10^5 cells/ml, CEA was applied to the cells in each well and 4 hours later DA, L-dopa (levodopa), 6-OHDA and MPP+ were added for 24 hours.
Survival was assayed by adding neutral red (0.34%, Sigma) to cells in DCCM-1 medium (0.1 ml/well, Bet-Haemek) and incubation for 2 hour at 37° C. The cells were then washed with cold PBS containing 10 mM MgCl2 and the dye was dissolved in 50% ethanol in 50% Somerson buffer (70 mM sodium citrate, 30 mM citric acid, 0.1 N HCl). ELISA reader (590 nm) was used to measure the remaining color intensity.

**Q.** Which “lethal dose 50% (LD50)” value [1] does the source give for CC(=O)N[C@@H](CS)C(=O)O [N-acetyl-cysteine] here?
**A.** Its value is 5,050 mg/kg.

**Q.** For CCOC(=O)[C@H](CS)NC(C)=O [compound A, N-acetyl cysteine ethyl ester], which “Level of endogenous GSH in striatum” value [2] is on record?
**A.** The value was “increases”.

**Q.** Which “Compound J in the brain” value [3] does the source give for CC(=O)NC(CS)C(N)=O (centres unmarked) [compound J] here?
**A.** The value was “concentration-dependent increase”.

**Q.** What about the “GSH levels increase over untreated animals” value (GSH) of the same molecule?
**A.** Its value is “up to 46%”.

**Q.** And the “Incidence and clinical severity of the disease” value (MOG-induced EAE)?
**A.** The value was “markedly reduced”.

**Q.** What about the “Mice remaining disease free” value (MOG-induced EAE; day 1 to 35 days post injection, n=16) of the same molecule?
**A.** The value was 15 out of the 16.

**Q.** What about the “Mean of total clinical score (0-6 scale)” value (MOG-induced EAE; n=16, SE) of the same molecule?
**A.** The value was 0.1+0.1.

**Q.** What about the “Protection of NB cells against the toxicity of DA, L-dopa, 6-OHDA (0.1-0.25 mM) and MPP+ (0.5-2 mM)” value [4] of the same molecule?
**A.** The value was “protect”.
